Reference: patent US10131652B2, “Pyrimidinyloxy benzene derivatives as herbicides” (E. I. DU PONT DE NEMOURS AND COMPANY, priority 2014, dated 2018)

How the values were obtained:
Test in all cases: Test D pre-/postemergence plant response
Type in all cases: in vivo
[1] = test system: Italian ryegrass (Lolium multiflorum)
Summary of the method: (§1)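 Two application timings were run together: preemergence onto seeded loam–sand pots, and postemergence onto 1- to 4-leaf plants (2 to 18 cm) in peat/vermiculite medium with starter nutrients. Formulation was a non-phytotoxic solvent with surfactant. Ratings, 0 to 100, were made visually versus controls after 13 to 15 greenhouse days.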

[2] = test system: barnyardgrass (Echinochloa crus-galli)
Summary of the method: as §1

[3] = test system: blackgrass (Alopecurus myosuroides)
Summary of the method: as §1

corn (Zea mays) = test system: corn (Zea mays)
Summary of the method: as §1

[4] = test system: galium (catchweed bedstraw, Galium aparine)
Summary of the method: as §1

[5] = test system: giant foxtail (Setaria faberii)
Summary of the method: as §1

[6] = test system: johnsongrass (Sorghum halepense)
Summary of the method: as §1

[7] = test system: lambsquarters (Chenopodium album)
Summary of the method: as §1

[8] = test system: large (Lg) crabgrass (Digitaria sanguinalis)
Summary of the method: as §1

[9] = test system: morningglory (Ipomoea coccinea)
Summary of the method: as §1

[10] = test system: oilseed rape (Brassica napus)
Summary of the method: as §1

[11] = test system: pigweed (Amaranthus retroflexus)
Summary of the method: as §1

[12] = test system: ragweed (common ragweed, Ambrosia elatior)
Summary of the method: as §1

soybean (Glycine max) = test system: soybean (Glycine max)
Summary of the method: as §1

[13] = test system: velvetleaf (Abutilon theophrasti)
Summary of the method: as §1

[14] = test system: waterhemp (common waterhemp, Amaranthus rudis)
Summary of the method: as §1

[15] = test system: winter wheat (Triticum aestivum)
Summary of the method: as §1

[16] = test system: yellow nutsedge (Cyperus esculentus)
Summary of the method: as §1

[17] = Postemergence, 16 g ai/ha, scale 0 to 100 (0 no effect, 100 complete control)
[18] = Postemergence, 31 g ai/ha, scale 0 to 100 (0 no effect, 100 complete control)
[19] = Postemergence, 62 g ai/ha, scale 0 to 100, 0 no effect, 100 complete control
[20] = Postemergence, 125 g ai/ha, scale 0 to 100, 0 no effect, 100 complete control
[21] = Preemergence, 16 g ai/ha, scale 0 to 100 (0 no effect, 100 complete control)
[22] = Preemergence, 31 g ai/ha, scale 0 to 100 (0 no effect, 100 complete control)
[23] = Preemergence, 62 g ai/ha, scale 0 to 100 (0 no effect, 100 complete control)

FC(F)c1cc(-c2c(Cl)cccc2Oc2ncc(Cl)cn2)on1 [Compound 120]
Ryegrass, Italian plant response rating [1, 17]: 5
Ryegrass, Italian plant response rating [1, 18]: 5
Plant response rating, Ryegrass, Italian [1, 19]: 10
Plant response rating, Ryegrass, Italian [1, 20]: 50
Plant response rating (scale 0 to 100), Ryegrass, Italian ([1]; Preemergence, 125 g ai/ha): 90
Plant response rating, Ryegrass, Italian [1, 21]: 5
Plant response rating, Ryegrass, Italian [1, 22]: 35
Plant response rating, Ryegrass, Italian [1, 23]: 90
Barnyardgrass plant response rating [2, 17]: 10
Barnyardgrass plant response rating [2, 18]: 15
Plant response rating, Barnyardgrass [2, 19]: 25
Plant response rating, Barnyardgrass [2, 20]: 40
Plant response rating (scale 0 to 100), Barnyardgrass ([2]; Preemergence, 62 g ai/ha): 90
Plant response rating (scale 0 to 100), Barnyardgrass ([2]; Preemergence, 125 g ai/ha): 100
Plant response rating, Barnyardgrass [2, 21]: 25
Plant response rating, Barnyardgrass [2, 22]: 75
Blackgrass plant response rating [3, 17]: 20
Blackgrass plant response rating [3, 18]: 35
Plant response rating, Blackgrass [3, 19]: 60
Plant response rating, Blackgrass [3, 20]: 55
Plant response rating (scale 0 to 100), Blackgrass ([3]; Preemergence, 125 g ai/ha): 90
Plant response rating, Blackgrass [3, 21]: 70
Plant response rating, Blackgrass [3, 22]: 60
Plant response rating, Blackgrass [3, 23]: 90
Corn plant response rating (corn (Zea mays); [17]): 15
Corn plant response rating (corn (Zea mays); [18]): 15
Plant response rating, Corn (corn (Zea mays); [19]): 10
Plant response rating, Corn (corn (Zea mays); [20]): 15
Plant response rating (scale 0 to 100), Corn (corn (Zea mays); Preemergence, 125 g ai/ha): 75
Plant response rating, Corn (corn (Zea mays); [21]): 0
Plant response rating, Corn (corn (Zea mays); [22]): 35
Plant response rating, Corn (corn (Zea mays); [23]): 25
Galium plant response rating [4, 17]: 98
Galium plant response rating [4, 18]: 98
Plant response rating, Galium [4, 19]: 100
Plant response rating, Galium [4, 20]: 100
Plant response rating (scale 0 to 100), Galium ([4]; Preemergence, 125 g ai/ha): 90
Plant response rating, Galium [4, 21]: 90
Plant response rating, Galium [4, 22]: 98
Plant response rating, Galium [4, 23]: 90
Foxtail, Giant plant response rating [5, 17]: 10
Foxtail, Giant plant response rating [5, 18]: 10
Plant response rating, Foxtail, Giant [5, 19]: 15
Plant response rating, Foxtail, Giant [5, 20]: 25
Plant response rating (scale 0 to 100), Foxtail, Giant ([5]; Preemergence, 125 g ai/ha): 100
Plant response rating, Foxtail, Giant [5, 21]: 95
Plant response rating, Foxtail, Giant [5, 22]: 98
Plant response rating, Foxtail, Giant [5, 23]: 98
Johnsongrass plant response rating [6, 17]: 5
Johnsongrass plant response rating [6, 18]: 30
Plant response rating, Johnsongrass [6, 19]: 40
Plant response rating, Johnsongrass [6, 20]: 85
Plant response rating (scale 0 to 100), Johnsongrass ([6]; Preemergence, 125 g ai/ha): 98
Plant response rating, Johnsongrass [6, 21]: 50
Plant response rating, Johnsongrass [6, 22]: 55
Plant response rating, Johnsongrass [6, 23]: 95
Lambsquarters plant response rating [7, 17]: 100
Lambsquarters plant response rating [7, 18]: 100
Plant response rating, Lambsquarters [7, 19]: 100
Plant response rating, Lambsquarters [7, 20]: 100
Plant response rating (scale 0 to 100), Lambsquarters ([7]; Preemergence, 125 g ai/ha): 100
Plant response rating, Lambsquarters [7, 21]: 70
Plant response rating, Lambsquarters [7, 22]: 95
Plant response rating, Lambsquarters [7, 23]: 90
Crabgrass, Large plant response rating [8, 17]: 30
Crabgrass, Large plant response rating [8, 18]: 25
Plant response rating, Crabgrass, Large [8, 19]: 35
Plant response rating, Crabgrass, Large [8, 20]: 65
Plant response rating (scale 0 to 100), Crabgrass, Large ([8]; Preemergence, 125 g ai/ha): 100
Plant response rating, Crabgrass, Large [8, 21]: 98
Plant response rating, Crabgrass, Large [8, 22]: 100
Plant response rating, Crabgrass, Large [8, 23]: 100
Morningglory plant response rating [9, 17]: 85
Morningglory plant response rating [9, 18]: 98
Plant response rating, Morningglory [9, 19]: 80
Plant response rating, Morningglory [9, 20]: 100
Plant response rating (scale 0 to 100), Morningglory ([9]; Preemergence, 125 g ai/ha): 75
Plant response rating, Morningglory [9, 21]: 0
Plant response rating, Morningglory [9, 22]: 30
Plant response rating, Morningglory [9, 23]: 60
Oilseed Rape plant response rating [10, 17]: 80
Oilseed Rape plant response rating [10, 18]: 85
Plant response rating, Oilseed Rape [10, 19]: 90
Plant response rating, Oilseed Rape [10, 20]: 95
Plant response rating (scale 0 to 100), Oilseed Rape ([10]; Preemergence, 125 g ai/ha): 100
Plant response rating, Oilseed Rape [10, 21]: 50
Plant response rating, Oilseed Rape [10, 22]: 90
Plant response rating, Oilseed Rape [10, 23]: 95
Pigweed plant response rating [11, 17]: 98
Pigweed plant response rating [11, 18]: 100
Plant response rating, Pigweed [11, 19]: 100
Plant response rating, Pigweed [11, 20]: 100
Plant response rating (scale 0 to 100), Pigweed ([11]; Preemergence, 125 g ai/ha): 100
Plant response rating, Pigweed [11, 21]: 100
Plant response rating, Pigweed [11, 22]: 100
Plant response rating, Pigweed [11, 23]: 100
Ragweed plant response rating [12, 17]: 40
Ragweed plant response rating [12, 18]: 55
Plant response rating, Ragweed [12, 19]: 70
Plant response rating, Ragweed [12, 20]: 85
Plant response rating (scale 0 to 100), Ragweed ([12]; Preemergence, 125 g ai/ha): 100
Plant response rating, Ragweed [12, 21]: 0
Plant response rating, Ragweed [12, 22]: 0
Plant response rating, Ragweed [12, 23]: 25
Soybean plant response rating (soybean (Glycine max); [17]): 90
Soybean plant response rating (soybean (Glycine max); [18]): 70
Plant response rating, Soybean (soybean (Glycine max); [19]): 70
Plant response rating, Soybean (soybean (Glycine max); [20]): 95
Plant response rating (scale 0 to 100), Soybean (soybean (Glycine max); Preemergence, 125 g ai/ha): 50
Plant response rating, Soybean (soybean (Glycine max); [21]): 75
Plant response rating, Soybean (soybean (Glycine max); [22]): 10
Plant response rating, Soybean (soybean (Glycine max); [23]): 60
Velvetleaf plant response rating [13, 17]: 70
Velvetleaf plant response rating [13, 18]: 85
Plant response rating, Velvetleaf [13, 19]: 100
Plant response rating, Velvetleaf [13, 20]: 100
Plant response rating (scale 0 to 100), Velvetleaf ([13]; Preemergence, 125 g ai/ha): 100
Plant response rating, Velvetleaf [13, 21]: 50
Plant response rating, Velvetleaf [13, 22]: 75
Plant response rating, Velvetleaf [13, 23]: 100
Waterhemp plant response rating [14, 17]: 90
Waterhemp plant response rating [14, 18]: 100
Plant response rating, Waterhemp [14, 19]: 100
Plant response rating, Waterhemp [14, 20]: 100
Plant response rating (scale 0 to 100), Waterhemp ([14]; Preemergence, 125 g ai/ha): 100
Plant response rating, Waterhemp [14, 21]: 100
Plant response rating, Waterhemp [14, 22]: 100
Plant response rating, Waterhemp [14, 23]: 100
Wheat plant response rating [15, 17]: 0
Wheat plant response rating [15, 18]: 0
Plant response rating, Wheat [15, 19]: 0
Plant response rating, Wheat [15, 20]: 0
Plant response rating (scale 0 to 100), Wheat ([15]; Preemergence, 125 g ai/ha): 5
Plant response rating, Wheat [15, 21]: 0
Plant response rating, Wheat [15, 22]: 0
Plant response rating, Wheat [15, 23]: 5
Nutsedge, Yellow plant response rating [16, 17]: 5
Nutsedge, Yellow plant response rating [16, 18]: 10
Plant response rating, Nutsedge, Yellow [16, 19]: 10
Plant response rating, Nutsedge, Yellow [16, 20]: 15
Plant response rating (scale 0 to 100), Nutsedge, Yellow ([16]; Preemergence, 125 g ai/ha): 45
Plant response rating, Nutsedge, Yellow [16, 21]: 0
Plant response rating, Nutsedge, Yellow [16, 22]: 5
Plant response rating, Nutsedge, Yellow [16, 23]: 35

FC(F)c1cc(-c2c(Cl)cccc2Oc2ncc(Br)cn2)on1 [Compound 121]
Ryegrass, Italian plant response rating [1, 18]: 10
Plant response rating, Ryegrass, Italian [1, 19]: 40
Plant response rating, Ryegrass, Italian [1, 20]: 55
Barnyardgrass plant response rating [2, 17]: 20
Barnyardgrass plant response rating [2, 18]: 25
Plant response rating, Barnyardgrass [2, 19]: 25
Plant response rating, Barnyardgrass [2, 20]: 45
Blackgrass plant response rating [3, 17]: 5
Blackgrass plant response rating [3, 18]: 25
Plant response rating, Blackgrass [3, 19]: 30
Plant response rating, Blackgrass [3, 20]: 50
Corn plant response rating (corn (Zea mays); [17]): 10
Corn plant response rating (corn (Zea mays); [18]): 20
Plant response rating, Corn (corn (Zea mays); [19]): 20
Plant response rating, Corn (corn (Zea mays); [20]): 25
Galium plant response rating [4, 18]: 90
Plant response rating, Galium [4, 19]: 100
Plant response rating, Galium [4, 20]: 95
Foxtail, Giant plant response rating [5, 17]: 10
Foxtail, Giant plant response rating [5, 18]: 10
Plant response rating, Foxtail, Giant [5, 19]: 15
Plant response rating, Foxtail, Giant [5, 20]: 40
Johnsongrass plant response rating [6, 18]: 35
Plant response rating, Johnsongrass [6, 19]: 60
Plant response rating, Johnsongrass [6, 20]: 60
Lambsquarters plant response rating [7, 18]: 100
Plant response rating, Lambsquarters [7, 19]: 100
Plant response rating, Lambsquarters [7, 20]: 100
Crabgrass, Large plant response rating [8, 17]: 15
Crabgrass, Large plant response rating [8, 18]: 10
Plant response rating, Crabgrass, Large [8, 19]: 40
Plant response rating, Crabgrass, Large [8, 20]: 55
Morningglory plant response rating [9, 18]: 75
Plant response rating, Morningglory [9, 19]: 90
Plant response rating, Morningglory [9, 20]: 98
Oilseed Rape plant response rating [10, 18]: 80
Plant response rating, Oilseed Rape [10, 19]: 95
Plant response rating, Oilseed Rape [10, 20]: 95
Pigweed plant response rating [11, 18]: 98
Plant response rating, Pigweed [11, 19]: 100
Plant response rating, Pigweed [11, 20]: 100
Ragweed plant response rating [12, 18]: 65
Plant response rating, Ragweed [12, 19]: 75
Plant response rating, Ragweed [12, 20]: 98
Soybean plant response rating (soybean (Glycine max); [18]): 60
Plant response rating, Soybean (soybean (Glycine max); [19]): 90
Plant response rating, Soybean (soybean (Glycine max); [20]): 95
Velvetleaf plant response rating [13, 18]: 80
Plant response rating, Velvetleaf [13, 19]: 80
Plant response rating, Velvetleaf [13, 20]: 85
Waterhemp plant response rating [14, 18]: 95
Plant response rating, Waterhemp [14, 19]: 100
Plant response rating, Waterhemp [14, 20]: 100
Wheat plant response rating [15, 18]: 0
Plant response rating, Wheat [15, 19]: 0
Plant response rating, Wheat [15, 20]: 0
Nutsedge, Yellow plant response rating [16, 18]: 10
Plant response rating, Nutsedge, Yellow [16, 19]: 5
Plant response rating, Nutsedge, Yellow [16, 20]: 20
